According to patent publication US20240150306A1, “COMPOUNDS WITH CLEAVABLE DISULFIDE MOIETIES” (REINVIGORON THERATECH, INC., priority 2022, published 2024):

Tests used:
[1] = tested on: 4T1 murine breast cancer cells; assay: In vitro luciferase expression (ONE-Glo+Tox); format: cell-based; settings: 100 ng mRNA or 200 ng pDNA per well, 24 h, FIGS. 11 and 12
Procedure: (§1) 4T1 murine breast cancer cells were seeded into white 96-well plate with the density of 1×10^4 cells per well. After 24 h, cells were replaced by 180 μL fresh RPMI 1640 medium (10% FBS), and 20 μL mRNA-Luc or Luc-pDNA encapsulated CLLM Nanoparticle formulations were added with fixed 100 ng mRNA or 200 ng pDNA per well. Free mRNA-Luc or Luc-pDNA were used as the control. Cells were further incubated for 24 h and ONE-Glo+Tox kits were used for mRNA expression and cytotoxicity detection based on the standard protocol.

[2] = tested on: 4T1 murine breast cancer cells; assay: Cell viability / cytotoxicity detection (ONE-Glo+Tox); format: cell-based
Procedure: as §1

Structure (SMILES): CCCCCCCCCCCCCCOC(=O)CCN(CCSSCCN(C)C)CCC(=O)OCCCCCCCCCCCCCC [CLLM-2]
- luciferase expression / delivery of mRNA and pDNA into cells [1]: can deliver mRNA and pDNA into cells
- tolerability of drug delivery (mRNA nanoparticle formulations) ([2]; 100 ng mRNA in 200 uL medium per well, FIG. 11): tolerated
- tolerability of drug delivery (pDNA nanoparticle formulations) ([2]; 200 ng pDNA in 200 uL medium per well, FIG. 12): tolerated
